In brackets after ≈: the same amount, converted by molar mass.
Key:
MCF7 [1] = assay: In vitro cytotoxic activity against subline resistant to doxorubicin (MCF-7/R) by using SRB assay after 72 hr of drug exposure; format: functional, cell-based; conditions: Homo sapiens, MCF7, 72 h
MCF7 [2] = assay: In vitro cytotoxic activity against human breast cancer cells (MCF-7) by using SRB assay after 72 hr of drug exposure; format: functional, cell-based; conditions: MCF7, 72 h
SNU1 = assay: In vitro cytotoxic activity against SNU-1(stomach cancer cell) by using SRB assay after 72 hr of drug exposure; format: functional, cell-based; conditions: Homo sapiens, SNU1, 72 h
SNU-354 = assay: In vitro cytotoxic activity against SNU-354(liver cancer cell) by using SRB assay after 72 hr of drug exposure; format: functional, cell-based; conditions: Homo sapiens, SNU-354, 72 h
[3] = Resistance index expressed as the ratio of IC50 of resistant cell line (MCF-7/R) to IC50 of sensitive cell line (MCF-7); format: functional

SMILES	IC50 (MCF7 [1]) [µg/mL]	IC50 (MCF7 [2]) [µg/mL]	IC50 (SNU1) [µg/mL]	IC50 (SNU-354) [µg/mL]	Resistance index [3]
O=C1c2ccccc2C(=O)c2ncc(CO)cc21	17.7 (≈ 74.1 µM)	6.66 (≈ 27.8 µM)	8.1 (≈ 33.9 µM)	4.5 (≈ 18.8 µM)	2.7
CC(C)NC(=O)OCc1cnc2c(c1)C(=O)c1ccccc1C2=O	> 100	> 100	> 20	> 20	
O=C1c2ccccc2C(=O)c2ncc(CBr)cc21	3.08 (≈ 10.2 µM)	2.49 (≈ 8.24 µM)	0.56 (≈ 1.85 µM)	0.89 (≈ 2.95 µM)	1.2
Cc1cnc2c(c1)C(=O)c1ccccc1C2=O	69.1 (≈ 309 µM)	18.3 (≈ 82.1 µM)	13.9 (≈ 62.3 µM)	> 20	3.8
COc1cccc2c1C(=O)c1c(O)c3c(c(O)c1C2=O)C[C@@](O)(C(=O)CO)C[C@@H]3O[C@H]1C[C@H](N)[C@H](O)[C@H](C)O1 [DOXORUBICIN]			0.27 (≈ 0.497 µM)	0.54 (≈ 0.994 µM)	
CC(=O)OCc1cnc2c(c1)C(=O)c1ccccc1C2=O	49.9 (≈ 177 µM)	6.7 (≈ 23.8 µM)	8.4 (≈ 29.9 µM)	11.8 (≈ 42 µM)	7.4
O=C(Nc1ccccc1)OCc1cnc2c(c1)C(=O)c1ccccc1C2=O	57.3 (≈ 160 µM)	4.58 (≈ 12.8 µM)	14.9 (≈ 41.6 µM)	15.2 (≈ 42.4 µM)	12.5

Reference: ChEMBL document CHEMBL1129016, “Synthesis and in vitro evaluation of 3-substituted-1-azaanthraquinones” (Bioorg Med Chem Lett, 1996)
